This is an account of results in the NIST ThermoML archive (doi:10.1016/j.tca.2015.07.018).

± gives the expanded uncertainty stated by the source.

The conditions of the series: for vapor or sublimation pressure: Crystal, Rate of evaporation; for Triple point temperature: From the change of vapor pressure slope.

For the compound `[Cl-].[Cl-].[Cl-].[In+3]` [indium chloride], the “vapor or sublimation pressure” value by setting is: (570 K) 0.004417 ± 0.00044 kPa; (580 K) 0.007462 ± 0.00075 kPa; (590 K) 0.01238 ± 0.0012 kPa; (600 K) 0.02021 ± 0.002 kPa; (610 K) 0.03245 ± 0.0032 kPa; (620 K) 0.05132 ± 0.0051 kPa. Also, the “vapor or sublimation pressure” value by setting is: (630 K) 0.07998 ± 0.008 kPa; (640 K) 0.1229 ± 0.012 kPa.
Turning to `[Cl][Cu]` [copper monochloride], the Triple point temperature came out at 701 ± 6 K (Crystal 1) and 688 ± 6 K (Crystal 2).
